The values below come from ChEMBL document CHEMBL1201862, “PubChem BioAssay data set” (2004).

Holding throughout (test): inhibition of tumour cell growth, NCI panel, 48 h
The test system of assay [1] is SK-MEL-28.
The test system of assay [2] is A498.
Assay [3] concerns IGROV-1.
Assay [4] relates to OVCAR-8.
The subject of assay [5] is 786-0.
The subject of assay [6] is SF-539.
The subject of assay [7] is MCF7.
The test system of assay [8] is ACHN.
In assay [9] the test system is CAKI-1.
Assay [10] has as its system M14.
Assay [11] relates to NCI-H460.
In assay [12] the test system is U-251.
The subject of assay [13] is MDA-MB-435.
Assay [14] has as its system LOX IMVI.
The subject of assay [15] is SK-MEL-2.
Assay [16] deals with SW-620.
The test system of assay [17] is SK-MEL-5.
The test system of assay [18] is SK-OV-3.
Assay [19] has as its system RPMI-8226.

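Five compound concentrations were applied to cells in 96-well plates for 48 hours; endpoints were derived by simple linear interpolation of the resulting dose-response curve. GI50 marks 50% less growth.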 The source made the active and inactive calls. No stated cut-off is given here; in the data, active = GI50 up to about 1.1 µM and inactive = higher.

Regarding `COC(=O)c1ccccc1C1CN=NC12Cc1ccc(C)c(C)c1C2=O` (stereo not drawn), the GI50 in [1], in [2], in assay [3], in assay [4], in [5] and in assay [6] was > 100 µM (inactive) in each case. In addition, the GI50 was 35.6 µM (inactive) in assay [7]; > 100 µM (inactive) in [8]; 79.6 µM (inactive) in assay [9]; 62.7 µM (inactive) in assay [10]; 52.4 µM (inactive) in assay [11]; > 100 µM (inactive) in assay [12]. Besides, the GI50 in assay [13] is 64.3 µM (inactive); in assay [14], 14.6 µM (inactive); in assay [15], > 100 µM (inactive); in assay [16], > 100 µM (inactive); in assay [17], 21.6 µM (inactive); in assay [18], > 100 µM (inactive).
Take `COc1cc(OC)c(-c2oc3ccccc3c(=O)c2O)c(OC)c1`: the GI50 in assay [1] is > 22.8 µM (inactive); in assay [2] it was 3.27 µM (inactive); in [3], 4.37 µM (inactive); in [4] it was 10.4 µM (inactive); in assay [5] it was 13.4 µM (inactive); in [6], 8.73 µM (inactive). Also, the GI50 is 6.25 µM (inactive) in [7]; 4.28 µM (inactive) in [19]; > 29 µM (inactive) in [8]; 5.74 µM (inactive) in [9]; 2.55 µM (inactive) in assay [10]; 3.21 µM (inactive) in assay [11]. Also, the GI50 in assay [12] is 3.84 µM (inactive); in assay [13], 0.889 µM (active); in assay [14], 5.98 µM (inactive); in assay [16] it was 3.62 µM (inactive); in [17], 3.68 µM (inactive); in assay [18], 5.94 µM (inactive).
Turning to `COC(=O)CCc1ccc2c(c1)C(=O)CC2`, the GI50 in [1], in assay [2], in assay [3], in assay [4], in assay [5] and in assay [6] was > 100 µM (inactive) throughout. Besides, the GI50 in assay [7], in assay [19], in assay [8], in assay [10], in assay [11] and in [12] was > 100 µM (inactive) each time. Moreover, the GI50 in assay [13], in [14], in assay [15], in assay [16], in [17] and in [18] was > 100 µM (inactive) each time.
Turning to `C#CCN(C(=O)C(F)(F)F)C(/C=C\C(=O)OC)(C(=O)OCC)C(=O)OCC`, the GI50 in [1], in assay [2], in [3], in assay [4], in assay [5] and in [6] was > 100 µM (inactive) in each case. Moreover, the GI50 in assay [7], in assay [19], in assay [8], in assay [10], in assay [11] and in [12] was > 100 µM (inactive) throughout. Also, the GI50 in assay [13], in assay [14], in assay [15], in [16], in [17] and in assay [18] was > 100 µM (inactive) each time.
As to `CCSc1n/c(=C\c2ccc(N(C)C)cc2)c2nnnn12`, the GI50 in [1], in assay [2], in assay [3], in assay [4], in [5] and in [7] was > 100 µM (inactive) in each case. The GI50 in assay [19], in [8], in [9], in [10], in [11] and in assay [12] was > 100 µM (inactive) in each case. The GI50 in assay [13], in assay [15], in assay [16], in [17] and in assay [18] was > 100 µM (inactive) throughout.
Turning to `C/C=C1\CC(C(=O)OCC)CCCCCCCCCCC1=O` (stereo not drawn), the GI50 was > 100 µM (inactive) in assay [1]; > 100 µM (inactive) in [2]; 31.8 µM (inactive) in [3]; 43.3 µM (inactive) in assay [4]; 70.1 µM (inactive) in [5]; > 100 µM (inactive) in assay [6]. For the same compound, the GI50 was 32.8 µM (inactive) in assay [7]; 75 µM (inactive) in assay [8]; > 100 µM (inactive) in [9]; > 100 µM (inactive) in assay [10]; 54.1 µM (inactive) in assay [11]; 55.2 µM (inactive) in [12]. Moreover, the GI50 is 17.5 µM (inactive) in assay [13]; 28.8 µM (inactive) in assay [14]; 36.1 µM (inactive) in assay [15]; 38.5 µM (inactive) in assay [16]; 29.2 µM (inactive) in [17]; > 100 µM (inactive) in assay [18].
As for `CC1(C)CC[C@]2(C(=O)O)CC[C@]3(C)C(=CC[C@@H]4[C@@]5(C)CC[C@H](OC6OC(CO)C(O)C(O)C6O)C(C)(C)[C@@H]5CC[C@]43C)[C@@H]2C1` (stereo partly drawn), the GI50 was 1.99 µM (inactive) in assay [1]; 2.1 µM (inactive) in [2]; 1.58 µM (inactive) in assay [3]; 1.75 µM (inactive) in [4]; 1.77 µM (inactive) in assay [5]; 2.37 µM (inactive) in assay [7]. In addition, the GI50 in assay [19] is 2.61 µM (inactive); in [8] it was 1.66 µM (inactive); in [9], 2.3 µM (inactive); in assay [10], 1.75 µM (inactive); in assay [11] it was 3.61 µM (inactive); in assay [12] it was 1.68 µM (inactive). In addition, the GI50 in assay [13] is 1.87 µM (inactive); in assay [14] it was 1.66 µM (inactive); in [15] it was 1.71 µM (inactive); in [16] it was 1.82 µM (inactive); in assay [17] it was 1.93 µM (inactive); in assay [18], 1.75 µM (inactive).
With `N#C[C@H]1C(=O)C(c2nc3ccccc3[nH]2)S[C@H]1c1ccccc1` (stereo partly drawn), the GI50 in assay [1] is 54.8 µM (inactive); in assay [2], 22.1 µM (inactive); in assay [3], 26.9 µM (inactive); in assay [4], 43.2 µM (inactive); in [5], 19.1 µM (inactive); in [7], 28.4 µM (inactive). Also, the GI50 in assay [19] is 25.5 µM (inactive); in assay [8], 20 µM (inactive); in assay [9], 38.6 µM (inactive); in assay [10] it was 33.3 µM (inactive); in [11], 35.1 µM (inactive); in assay [12], 22.6 µM (inactive). The GI50 in assay [13] was 35 µM (inactive); in assay [14], 42 µM (inactive); in [16] it was 32.5 µM (inactive); in assay [17] it was 25.2 µM (inactive); in [18], 47.1 µM (inactive).
Turning to `C=C1CC2[C@H](C)C(=O)CCC2(C)C2=C1C1CCC(C(C)CCC(=C)C(C)C(=O)O)C1(C)CC2=O` (stereo partly drawn), the GI50 in assay [1] is > 100 µM (inactive); in assay [2], > 100 µM (inactive); in [3], 56.9 µM (inactive); in assay [4], 75.7 µM (inactive); in assay [5], 20.4 µM (inactive); in [6], 97.3 µM (inactive). Moreover, the GI50 was 83.9 µM (inactive) in [7]; 31.9 µM (inactive) in assay [8]; > 100 µM (inactive) in assay [9]; > 100 µM (inactive) in assay [10]; 34.4 µM (inactive) in assay [11]; 55.1 µM (inactive) in assay [12]. Moreover, the GI50 is 58.5 µM (inactive) in assay [13]; 17.9 µM (inactive) in [14]; > 100 µM (inactive) in [15]; 61.7 µM (inactive) in assay [16]; 31.3 µM (inactive) in assay [17]; 89.5 µM (inactive) in assay [18].
As for `COc1ccc(-c2[nH]c(-c3ccc(OC)cc3)c(-c3ccccn3)c2-c2ccccn2)cc1`, the GI50 in assay [2] was 82 µM (inactive); in [3] it was 71.8 µM (inactive); in [4] it was 50 µM (inactive); in assay [5], > 100 µM (inactive); in assay [6] it was 63.1 µM (inactive); in assay [7], 42.7 µM (inactive). In addition, the GI50 is 20.2 µM (inactive) in assay [19]; 74 µM (inactive) in assay [8]; > 100 µM (inactive) in assay [9]; 48.1 µM (inactive) in assay [10]; 31.8 µM (inactive) in assay [11]; 43.8 µM (inactive) in assay [12]. The GI50 in [13] is 21.7 µM (inactive); in [14], 24 µM (inactive); in assay [16], 36 µM (inactive); in [17], 18.3 µM (inactive); in assay [18], > 100 µM (inactive).
As for `CC(=O)OCC1OC(Nc2ccc3nc(C)n(-c4cccc(C)c4)c(=O)c3c2)C(OC(C)=O)C(OC(C)=O)C1OC(C)=O` (stereo not drawn), the GI50 in assay [1], in [2], in assay [3], in assay [4], in assay [5] and in assay [7] was > 62.5 µM (inactive) in each case. For the same compound, the GI50 in assay [19] was 36.4 µM (inactive); in assay [8], > 62.5 µM (inactive); in assay [9] it was > 62.5 µM (inactive); in assay [11] it was > 62.5 µM (inactive); in assay [12], > 62.5 µM (inactive); in assay [13] it was > 62.5 µM (inactive). For the same compound, the GI50 in [14], in assay [15], in assay [16] and in [17] was > 62.5 µM (inactive) each time.
